Measurements as given in patent US9676715B2, “Bis-indolic derivatives, a process for preparing the same and their uses as a drug” (UNIVERSITE JOSEPH FOURIER, priority 2011, dated 2017).
Values after ≈ are worked out from the molar mass of the structure shown.

How the values were obtained:
[1] = test system: S. aureus CIP 65.6; assay: MIC, microdilution method (9.1); format: cell-based, Staphylococcus aureus; conditions: Staphylococcus aureus, CIP65, read after 18 h, read-out: MIC
Method: (§1) The microdilution method recommended by the Clinical and Laboratory Standard Institute [M07-A8, Vol. 29, No. 2] was used. The activity of indolic compounds was tested against 29 bacterial strains belonging to 17 different species and 12 different genera (Staphylococcus, Streptococcus, Enterococcus, Listeria, Bacillus, Haemophilus, Escherichia, Klebsiella, Enterobacter, Serratia, Pseudomonas, and Acinetobacter). Bacterial inocula were prepared in Mueller Hinton broth (MH2, bioMérieux, Marcy L'Etoile, France), supplemented with 10% sheep blood for fastidious species (i.e., Streptococcus pneumoniae and Haemophilus influenzae). They were dispensed in 96 well microtiter plates (5×10^5 CFU/ml of final inoculum). Indolic compounds were added to the wells as to obtain two-fold serial concentrations (0.50-128 mg/L of final concentrations). Plates were incubated at 37° C. in ambient air, or at 37° C. in 5% CO2 enriched atmosphere for fastidious species. […] Drug-free cultures served as growth controls. Cultures receiving gentamicin, ciprofloxacin or cefotaxime served as positive controls.

[2] = test system: S. aureus SA-1199B; assay: MIC, microdilution method (9.1); format: cell-based, Staphylococcus aureus; conditions: Staphylococcus aureus, SA1199B, 18 h
Method: as §1

[3] = test system: S. aureus ATCC 106414 (VISA); assay: MIC, microdilution method (9.1); format: cell-based, Staphylococcus aureus; conditions: Staphylococcus aureus, read after 18 h, read-out: MIC
Method: as §1

[4] = test system: S. aureus CIP 103428; assay: MIC, microdilution method (9.1); format: cell-based, Staphylococcus aureus; conditions: Staphylococcus aureus, CIP103428, read after 18 h, read-out: MIC
Method: as §1

[5] = test system: S. aureus ATCC 6538; assay: MIC, microdilution method (9.1); format: cell-based, Staphylococcus aureus; conditions: Staphylococcus aureus, ATCC6538, read after 18 h, read-out: MIC
Method: as §1

[6] = test system: S. aureus ATCC 29213; assay: MIC, microdilution method (9.1); format: cell-based, Staphylococcus aureus; conditions: Staphylococcus aureus, ATCC29213, read after 18 h, read-out: MIC
Method: as §1

[7] = test system: S. aureus ATCC 25923; assay: MIC, microdilution method (9.1); format: cell-based, Staphylococcus aureus; conditions: Staphylococcus aureus, ATCC25923, read after 18 h, read-out: MIC
Method: as §1

[8] = test system: S. aureus ATCC 9144; assay: MIC, microdilution method (9.1); format: cell-based, Staphylococcus aureus; conditions: Staphylococcus aureus, ATCC9144, read after 18 h, read-out: MIC
Method: as §1

[9] = test system: S. aureus ATCC 33592 (MRSA); assay: MIC, microdilution method (9.1); format: cell-based, Staphylococcus aureus; conditions: Staphylococcus aureus, read after 18 h, read-out: MIC
Method: as §1

[10] = test system: S. aureus CIP 65.25 (MRSA); assay: MIC, microdilution method (9.1); format: cell-based, Staphylococcus aureus; conditions: Staphylococcus aureus, read after 18 h, read-out: MIC
Method: as §1

[11] = test system: S. epidermidis ATCC 12228; assay: MIC, microdilution method (9.1); format: cell-based, Staphylococcus epidermidis; conditions: Staphylococcus epidermidis, ATCC12228, read after 18 h, read-out: MIC
Method: as §1

[12] = test system: S. epidermidis CIP 103627; assay: MIC, microdilution method (9.1); format: cell-based, Staphylococcus epidermidis; conditions: Staphylococcus epidermidis, CIP103627, read after 18 h, read-out: MIC
Method: as §1

[13] = test system: S. epidermidis CIP 81.55; assay: MIC, microdilution method (9.1); format: cell-based, Staphylococcus epidermidis; conditions: Staphylococcus epidermidis, CIP81, read after 18 h, read-out: MIC
Method: as §1

[14] = test system: S. pneumoniae ATCC 6303; assay: MIC, microdilution method (9.1); format: cell-based, Streptococcus pneumoniae; conditions: Streptococcus pneumoniae, ATCC6303, 10% sheep blood, 5% CO2, 18 h, read-out: MIC
Method: as §1

[15] = test system: S. agalactiae (group B) ATCC 12400; assay: MIC, microdilution method (9.1); format: cell-based, Streptococcus agalactiae; conditions: Streptococcus agalactiae, ATCC12400, 18 h, read-out: MIC
Method: as §1

[16] = test system: E. faecium CIP 54.32; assay: MIC, microdilution method (9.1); format: cell-based, Enterococcus faecium; conditions: Enterococcus faecium, CIP54, 18 h, read-out: MIC
Method: as §1

[17] = test system: S. mitis CIP 103335; assay: MIC, microdilution method (9.1); format: cell-based, Streptococcus mitis; conditions: Streptococcus mitis, CIP103335, 18 h, read-out: MIC
Method: as §1

[18] = test system: HCT116 (human colon tumor); assay: In vitro cytotoxicity; format: cell-based; conditions: read-out: % of cellular growth inhibition; for inhibition at 10 µM: HCT-116, 10^−5 M; for inhibition at 1 µM: HCT-116, 10^−6 M
Method: (§2) In vitro cytotoxicity was assayed on three cell lines—KB (human mouth carcinoma), MCR5 (human lung fibroblast) and HCT116 (human colon tumor). Results are presented in table IV as % of cellular growth inhibition in presence of 10^−5 M and 10^−6 M of the tested bis-indolic derivatives.

[19] = test system: KB (human mouth carcinoma); assay: In vitro cytotoxicity; format: cell-based; conditions: read-out: % of cellular growth inhibition; for inhibition at 10 µM: 10^−5 M; for inhibition at 1 µM: 10^−6 M
Method: as §2

[20] = test system: MRC5 (human lung fibroblast); assay: In vitro cytotoxicity; format: cell-based; conditions: read-out: % of cellular growth inhibition; for inhibition at 10 µM: 10^−5 M; for inhibition at 1 µM: 10^−6 M
Method: as §2

[21] = test system: S. pyogenes (group A) CIP 104226; assay: MIC, microdilution method (9.1); format: cell-based, Streptococcus pyogenes; conditions: Streptococcus pyogenes, CIP104226, 18 h, read-out: MIC
Method: as §1

[22] = test system: S. pneumoniae ATCC 49619; assay: MIC, microdilution method (9.1); format: cell-based; conditions: Streptococcus pneumoniae, ATCC49619, 10% sheep blood, 5% CO2, 18 h
Method: as §1

[23] = test system: Bacillus subtilis CIP 5262; assay: MIC, microdilution method (9.1); format: cell-based; conditions: CIP5262, 18 h, read-out: MIC
Method: as §1

[24] = test system: Haemophilus influenzae ATCC 49766; assay: MIC, microdilution method (9.1); format: cell-based; conditions: ATCC49766; Haemophilus influenzae ATCC 49766; 10% sheep blood, 5% CO2; 18 h; read-out: MIC
Method: as §1

[25] = test system: Klebsiella pneumoniae API ATCC 35657; assay: MIC, microdilution method (9.1); format: cell-based; conditions: ATCC35657, 18 h, read-out: MIC
Method: as §1

[26] = test system: Enterobacter cloacae ATCC13047; assay: MIC, microdilution method (9.1); format: cell-based; conditions: 18 h
Method: as §1

[27] = test system: Listeria innocua CIP 80.11; assay: MIC, microdilution method (9.1); format: cell-based; conditions: CIP80, 18 h, read-out: MIC
Method: as §1

[28] = test system: Escherichia coli ATCC 25922; assay: MIC, microdilution method (9.1); format: cell-based; conditions: ATCC25922, 18 h
Method: as §1

[29] = test system: Acinetobacter baumanii ATCC 19606; assay: MIC, microdilution method (9.1); format: cell-based; conditions: Acinetobacter baumannii, ATCC19606, 18 h, read-out: MIC
Method: as §1

[30] = test system: Serratia marcescens CIP 103551; assay: MIC, microdilution method (9.1); format: cell-based; conditions: CIP103551, 18 h
Method: as §1

[31] = test system: Pseudomonas aeruginosa CIP 5933; assay: MIC, microdilution method (9.1); format: cell-based; conditions: CIP5933, 18 h, read-out: MIC
Method: as §1

[32] = test system: E. faecalis ATCC 29212; assay: MIC, microdilution method (9.1); format: cell-based, Enterococcus faecalis; conditions: Enterococcus faecalis, ATCC29212, 18 h, read-out: MIC
Method: as §1

| SMILES | MIC [1] [µg/mL] | MIC [2] [µg/mL] | MIC [3] [µg/mL] | MIC [4] [µg/mL] | MIC [5] [µg/mL] | MIC [6] [µg/mL] | MIC [7] [µg/mL] | MIC [8] [µg/mL] | MIC [9] [µg/mL] | MIC [10] [µg/mL] | MIC [11] [µg/mL] | MIC [12] [µg/mL] | MIC [13] [µg/mL] | MIC [14] [µg/mL] | MIC [15] [µg/mL] | MIC [16] [µg/mL] | MIC [17] [µg/mL] | inhibition at 10 µM [18] [%] | inhibition at 1 µM [18] [%] | inhibition at 10 µM [19] [%] | also measured |
| --- | --- | --- | --- | --- | --- | --- | --- | --- | --- | --- | --- | --- | --- | --- | --- | --- | --- | --- | --- | --- | --- |
| CC(C)(C)OC(=O)NCC(NC(=O)c1c[nH]c2ccccc12)c1c[nH]c2cc(Br)ccc12 (stereo not shown) [Compound 3d, tert-Butyl (2-(6-bromo-1H-indol-3-yl)-2-(1H-indolyl-3-carboxamido)ethyl)carbamate] | 8 (≈ 16.1 µM) | 8 (≈ 16.1 µM) | 8 (≈ 16.1 µM) | 8 (≈ 16.1 µM) | 8 (≈ 16.1 µM) | 8 (≈ 16.1 µM) | 8 (≈ 16.1 µM) | 8 (≈ 16.1 µM) | 8 (≈ 16.1 µM) | 8 (≈ 16.1 µM) | 16 (≈ 32.2 µM) | 16 (≈ 32.2 µM) | 16 (≈ 32.2 µM) | 64 (≈ 129 µM) | 64 (≈ 129 µM) | 64 (≈ 129 µM) | 64 (≈ 129 µM) | 73 ± 3 | 9 | 67 ± 3 | inhibition at 1 µM [19]: 0%; inhibition at 10 µM [20]: 73 ± 6%; inhibition at 1 µM [20]: 0%; MIC [21]: 64 µg/mL (≈ 129 µM); MIC [22]: 64 µg/mL (≈ 129 µM); MIC [23]: 64 µg/mL (≈ 129 µM); MIC [24]: 64 µg/mL (≈ 129 µM); MIC [25]: > 128 µg/mL; MIC [26]: > 128 µg/mL; MIC [27]: 32 µg/mL (≈ 64.3 µM); MIC [28]: > 128 µg/mL; MIC [29]: > 128 µg/mL; MIC [30]: > 128 µg/mL; MIC [31]: > 128 µg/mL; MIC [32]: > 128 µg/mL |
| CC(C)(C)OC(=O)NCC(NC(=O)c1c[nH]c2cc(Cl)ccc12)c1c[nH]c2ccc(Cl)cc12 (stereo not shown) [Compound 6b, tert-Butyl 2-(5-chloro-1H-indol-3-yl)-2-(6-chloro-1H-indole-3-carboxamido)ethyl carbamate] | 4 (≈ 8.21 µM) | 4 (≈ 8.21 µM) | 4 (≈ 8.21 µM) | 4 (≈ 8.21 µM) | 4 (≈ 8.21 µM) | 4 (≈ 8.21 µM) | 4 (≈ 8.21 µM) | 4 (≈ 8.21 µM) | 4 (≈ 8.21 µM) | 4 (≈ 8.21 µM) | 4 (≈ 8.21 µM) | 8 (≈ 16.4 µM) | 4 (≈ 8.21 µM) | 64 (≈ 131 µM) | 128 (≈ 263 µM) | > 128 | 128 (≈ 263 µM) | 97 ± 6 | 0 | 92 ± 4 | inhibition at 1 µM [19]: 2%; inhibition at 10 µM [20]: 99 ± 1%; inhibition at 1 µM [20]: 0%; MIC [21]: 128 µg/mL (≈ 263 µM); MIC [22]: 64 µg/mL (≈ 131 µM); MIC [23]: 64 µg/mL (≈ 131 µM); MIC [24]: > 128 µg/mL; MIC [25]: > 128 µg/mL; MIC [26]: > 128 µg/mL; MIC [27]: > 128 µg/mL; MIC [28]: > 128 µg/mL; MIC [29]: > 128 µg/mL; MIC [30]: > 128 µg/mL; MIC [31]: > 128 µg/mL; MIC [32]: > 128 µg/mL |
